Source: patent US20140178902A1, “METHOD FOR DETECTING INFECTIONS” (priority 2011, published 2014)

Assays:
[1] = test system: rabbit Anti-FusC; assay: Protein immunoblot of gold nanoparticle conjugates; format: binding; details: serial dilutions
Protocol: Confirmation of conjugate formation was performed using a protein immunoblot. 4 μl of AuNP-FsC-BSA, Au-BSA and FusC-BSA samples were spotted onto a nitrocellulose membrane strip in serial dilutions (A-E) prepared in 2 mM borate (pH 9.0). Spots were allowed to dry before the strip was blocked for 30 min in Marvel (5% (w/v) in PBS). Membranes were then incubated for 30 min with primary antibody (rabbit Anti-FusC), diluted using blocking buffer (1/1000). Nitrocellulose blots were subsequently washed (2×5 min) in blocking solution and then incubated with a 1/1000 dilution of anti-rabbit IgG peroxidase-conjugated secondary antibody (Sigma-Aldrich), shaking for 30 min at room temperature. The nitrocellulose membranes were then washed extensively (2×5 min) in blocking solution and rinsed (2×5 min) with PBS. Immunoreactive samples were visualized using Pierce ECL Chemiluminescent Substrate (Fischer Scientific) for the detection of horseradish peroxidase.

[2] = test system: antibody (anti-PSC1A, rabbit antisera); assay: Competitive ELISA: free FusC against antibody recognition of conjugate PSC2A; format: binding; details: Free FusC 6.5 μg/ml
Protocol: FIG. 5: Competitive ELISA detection of TAFC and FusC. A. Immobilised antigen was an equimolar combination of PSC2B and PSC3B (acetylated & non-acetylated cBSA-SMCC-FusC^Fe3+), coated at 2.5 μg/ml (250 ng/well). Murine antisera was used (1/1000) which was raised against KLH-sHSAB-ih/cTAFC(PSC1A & PSC1B); Competition antigens were either FusC or cTAFC (0-20 μg/ml, respectively). B. FusC detection by ELISA. Free FusC 6.5 μg/ml prevents antibody (anti-PSC1A, rabbit antisera) recognition of conjugate PSC2A (cBSA-SATA-SMCC-FusC).
Microtitre plates (Nunc Maxisorp™ available from Nunc A/S, Roskilde, Denmark) were coated with either FusC (range used for optimisation: 0-66 μg/ml) or an equimolar combination of PSC2B/PSC3B conjugates (range used for optimisation: 0-10 μg/ml) in 50 mM sodium carbonate pH 9.4 for 16 hr (100 μl/well). […] Finally the absorbance was measured at 450/620 nm using a Synergy plate reader and standard curves of A450/620 nm versus log FusC concentration (0-100 μg/ml (or 0-20 μg/ml TAFC) constructed, from which the concentration of FusC in normal clinical specimens, of animal and human origin, was computed.
For example, it was observed that FusC or TAFC, respectively, could be detected by ELISA using murine antisera [anti-KLH-sHSAB-ihTAFC or cTAFC] […]

Row | Compound | reactivity in immunoblot with rabbit Anti-FusC [1] | antibody recognition of conjugate PSC2A (cBSA-SATA-SMCC-FusC) [2]
1 | BSA-AuNP: negative control BSA gold nanoparticle conjugate | No reactivity is visible | 
2 | C/C1=C/C(=O)N(O)CCCC(N)C(=O)OCC/C(C)=C\C(=O)N(O)CCCC(N)C(=O)OCC/C(C)=C\C(=O)N(O)CCCC(N)C(=O)OCC1 (centres unmarked) [FusC, fusarinine C] |  | prevents
